Laboratory results reported in PubChem BioAssay (NCI).
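48-hour exposure; five concentrations; linearly interpolated endpoints. GI50 marks 50% less growth. TGI: concentration producing complete growth inhibition.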

Legend:
Assay in all cases: NCI anticancer screen, dose series, 48 h
[1] = test system: KM12 colon
[2] = test system: NCI-H522 lung
[3] = test system: K-562 leukemia
[4] = test system: MALME-3M melanoma
[5] = test system: SK-MEL-5 melanoma
[6] = test system: SNB-75 CNS
[7] = test system: HOP-92 NSCLC
[8] = test system: TK-10 renal
[9] = test system: CCRF-CEM leukemia
[10] = test system: NCI/ADR-RES ovarian
[11] = test system: OVCAR-4 ovarian
[12] = test system: SK-MEL-2 melanoma
[13] = test system: BT-549 breast
[14] = test system: UO-31 renal
[15] = test system: LOX IMVI melanoma
[16] = test system: COLO 205 colon
[17] = test system: SNB-19 CNS
[18] = test system: RXF 393 renal
[19] = test system: SR leukemia
[20] = test system: OVCAR-3 ovarian
[21] = test system: DU-145 prostate
[22] = test system: RPMI-8226 leukemia
[23] = test system: SN12C renal
[24] = test system: 786-0 renal
[25] = test system: HCT-15 colon
[26] = test system: EKVX NSCLC
[27] = test system: A549 NSCLC
[28] = test system: SF-539 CNS
[29] = test system: UACC-257 melanoma
[30] = test system: MCF7 breast
[31] = test system: HS 578T breast
[32] = test system: ACHN renal
[33] = test system: OVCAR-5 ovarian
[34] = test system: PC-3 prostate
[35] = test system: HL-60(TB) leukemia
[36] = test system: CAKI-1 renal
[37] = test system: SF-268 CNS
[38] = test system: NCI-H23 lung
[39] = test system: MOLT-4 leukemia
[40] = test system: NCI-H226 lung
[41] = test system: NCI-H460 lung
[42] = test system: SK-OV-3 ovarian
[43] = test system: HCT-116 colon
[44] = test system: MDA-MB-435
[45] = test system: U251 CNS
[46] = test system: SF-295 CNS
[47] = test system: SK-MEL-28 melanoma
[48] = test system: OVCAR-8 ovarian
[49] = test system: M14 melanoma
[50] = test system: A498 renal
[51] = test system: UACC-62 melanoma
[52] = test system: MDA-MB-231 breast
[53] = test system: T-47D breast
[54] = test system: HCC-2998 colon
[55] = test system: SW-620 colon
[56] = test system: HT29 colon
[57] = test system: IGROV1 ovarian
[58] = test system: HOP-62 NSCLC

N=c1ccc2nc3c(cc(N)c4ccccc43)oc-2c1 gave a GI50 [1] of 236 nM, a TGI [1] of 845 nM and a GI50 [2] of 190 nM. For the same compound, the TGI [2] was 501 nM, the GI50 [3] was 298 nM and the TGI [3] was 1180 nM. It also gave a GI50 [4] of 169 nM, a TGI [4] of 362 nM and a GI50 [5] of 144 nM. The TGI [5] was 277 nM, the GI50 [6] was 191 nM and the TGI [6] was 654 nM. It also gave a GI50 [7] of 1180 nM, a TGI [7] of 3600 nM and a GI50 [8] of 737 nM. For the same compound, the TGI [8] was 2400 nM, the GI50 [9] was 546 nM and the TGI [9] was 3280 nM. The GI50 [10] was 223 nM, the TGI [10] was 1090 nM and the GI50 [11] was 91.9 nM. It also gave a TGI [11] of 235 nM, a GI50 [12] of 407 nM and a TGI [12] of 1610 nM. The GI50 [13] was 268 nM, the TGI [13] was 1270 nM and the GI50 [14] was 333 nM. It also gave a TGI [14] of 958 nM, a GI50 [15] of 103 nM and a TGI [15] of 378 nM. For the same compound, the GI50 [16] was 237 nM, the TGI [16] was 892 nM and the GI50 [17] was 242 nM. For the same compound, the TGI [17] was 795 nM, the GI50 [18] was 710 nM and the TGI [18] was 2320 nM. It also gave a GI50 [19] of 285 nM, a TGI [19] of 1290 nM and a GI50 [20] of 26.5 nM. It also gave a TGI [20] of 83.4 nM, a GI50 [21] of 265 nM and a TGI [21] of 692 nM. The GI50 [22] was 427 nM, the TGI [22] was 2940 nM and the GI50 [23] was 253 nM. The TGI [23] was 801 nM, the GI50 [24] was 1070 nM and the TGI [24] was 2300 nM. It also gave a GI50 [25] of 214 nM, a TGI [25] of 1130 nM and a GI50 [26] of 174 nM. It also gave a TGI [26] of 1090 nM, a GI50 [27] of 295 nM and a TGI [27] of 1050 nM. The GI50 [28] was 293 nM, the TGI [28] was 1050 nM and the GI50 [29] was 271 nM. For the same compound, the TGI [29] was 819 nM, the GI50 [30] was 162 nM and the TGI [30] was 342 nM. The GI50 [31] was 201 nM, the TGI [31] was 622 nM and the GI50 [32] was 325 nM. It also gave a TGI [32] of 1440 nM, a GI50 [33] of 348 nM and a TGI [33] of 1200 nM. For the same compound, the GI50 [34] was 217 nM, the TGI [34] was 1710 nM and the GI50 [35] was 147 nM. It also gave a TGI [35] of 733 nM, a GI50 [36] of 444 nM and a TGI [36] of 2320 nM. It also gave a GI50 [37] of 431 nM, a TGI [37] of 1750 nM and a GI50 [38] of 179 nM. It also gave a TGI [38] of 523 nM, a GI50 [39] of 287 nM and a TGI [39] of 1050 nM. The GI50 [40] was 386 nM, the TGI [40] was 1630 nM and the GI50 [41] was 223 nM. It also gave a TGI [41] of 565 nM, a GI50 [42] of 477 nM and a TGI [42] of 1730 nM. For the same compound, the GI50 [43] was 167 nM, the TGI [43] was 353 nM and the GI50 [44] was 182 nM. It also gave a TGI [44] of 338 nM, a GI50 [45] of 223 nM and a TGI [45] of 664 nM. It also gave a GI50 [46] of 199 nM, a TGI [46] of 599 nM and a GI50 [47] of 1190 nM. The TGI [47] was 2540 nM, the GI50 [48] was 457 nM and the TGI [48] was 3280 nM. The GI50 [49] was 164 nM, the TGI [49] was 338 nM and the TGI [50] was 780 nM. For the same compound, the GI50 [51] was 197 nM, the TGI [51] was 539 nM and the GI50 [52] was 179 nM. For the same compound, the TGI [52] was 1210 nM, the GI50 [53] was 1090 nM and the TGI [53] was 2790 nM. The GI50 [54] was 380 nM, the TGI [54] was 1310 nM and the GI50 [55] was 252 nM. For the same compound, the TGI [55] was 754 nM, the GI50 [56] was 535 nM and the TGI [56] was 1700 nM. The GI50 [57] was 180 nM, the TGI [57] was 643 nM and the GI50 [58] was 267 nM. It also gave a TGI [58] of 798 nM.

O=c1[nH]c2cc([N+](=O)[O-])c(Nc3c4ccccc4nc4ccccc34)c([N+](=O)[O-])c2[nH]1 was tested, and the TGI [1] was 10900 nM, the TGI [2] was 3630 nM and the TGI [3] was 6960 nM. It also gave a TGI [4] of 5090 nM, a TGI [5] of 7650 nM and a TGI [6] of 13500 nM. For the same compound, the TGI [7] was 18500 nM, the TGI [8] was 6850 nM and the TGI [9] was 24300 nM. It also gave a TGI [10] of 10900 nM, a TGI [11] of 13900 nM and a TGI [12] of 8600 nM. The TGI [13] was 23000 nM, the TGI [14] was 5980 nM and the TGI [15] was 7020 nM. It also gave a TGI [16] of 6970 nM, a TGI [17] of 26700 nM and a TGI [18] of 10100 nM. The TGI [19] was 4360 nM, the TGI [20] was 9330 nM and the TGI [21] was 8820 nM. It also gave a TGI [22] of 8250 nM, a TGI [23] of 9100 nM and a TGI [24] of 17600 nM. It also gave a TGI [25] of 14400 nM, a TGI [26] of 7470 nM and a TGI [27] of 12300 nM. The TGI [28] was 13700 nM, the TGI [29] was 11200 nM and the TGI [30] was 8360 nM. It also gave a TGI [31] of over 28900 nM, a TGI [32] of 16700 nM and a TGI [33] of 7080 nM. The TGI [34] was 15200 nM, the TGI [35] was 9390 nM and the TGI [36] was 7960 nM. The TGI [37] was 10500 nM, the TGI [38] was 16000 nM and the TGI [39] was 5020 nM. For the same compound, the TGI [40] was 15000 nM, the TGI [41] was 7750 nM and the TGI [42] was 24700 nM. For the same compound, the TGI [43] was 7390 nM, the TGI [44] was 8620 nM and the TGI [45] was 22600 nM. For the same compound, the TGI [46] was 11200 nM, the TGI [47] was 12900 nM and the TGI [48] was 16300 nM. It also gave a TGI [49] of 5140 nM, a TGI [50] of 6860 nM and a TGI [51] of 4530 nM. For the same compound, the TGI [52] was 17500 nM, the TGI [53] was 8830 nM and the TGI [54] was 5750 nM. It also gave a TGI [55] of 14700 nM, a TGI [56] of 9330 nM and a TGI [57] of 3040 nM. For the same compound, the TGI [58] was 11600 nM.
